{"source": "patent US20250302974A1", "about": "“LECTIN-DRUG CONJUGATES” (UNICHEM LABORATORIES LIMITED, priority 2021, published 2025)", "data": [{"target": "Sclerotium rolfsii lectin recombinant variant Rec-2, SEQ ID NO: 2 (Agroathelia rolfsii, UniProt A0A0M3KL30)", "experiment": "O-Glycan array binding study (94 glycans)", "units": {"Estimated Kd": "ug/m"}, "values": [{"molecule": "CC(=O)N[C@@H]1[C@@H](O[C@@H]2O[C@H](CO)[C@H](O)[C@H](O)[C@H]2O)[C@@H](O)[C@@H](CO)O[C@@H]1O", "note": "[T antigen, Galβ1-3GalNAcα]", "Estimated Kd": 0.319, "glycan binding": "Main binding motifs"}, {"molecule": "Sialyl T antigen", "Estimated Kd": "0.670 to 1.756", "glycan binding": "Main binding motifs"}, {"molecule": "CC(=O)N[C@H]1[C@H](OC[C@H]2OC(O)[C@H](NC(C)=O)[C@@H](O[C@@H]3O[C@H](CO)[C@H](O)[C@H](O)[C@H]3O)[C@H]2O)O[C@H](CO)[C@@H](O)[C@@H]1O", "note": "(stereo partly drawn) [core 2]", "Estimated Kd": 0.212, "glycan binding": "Main binding motifs"}]}]}
